What is called EC50 is the concentration giving half of the maximal effect. As usually defined, the IC50 is the concentration that gives 50% inhibition.

Test [1] addresses T1, Muscarinic acetylcholine receptor M1 (Homo sapiens, UniProt P11229).
T1 sequence (P11229 whole entry): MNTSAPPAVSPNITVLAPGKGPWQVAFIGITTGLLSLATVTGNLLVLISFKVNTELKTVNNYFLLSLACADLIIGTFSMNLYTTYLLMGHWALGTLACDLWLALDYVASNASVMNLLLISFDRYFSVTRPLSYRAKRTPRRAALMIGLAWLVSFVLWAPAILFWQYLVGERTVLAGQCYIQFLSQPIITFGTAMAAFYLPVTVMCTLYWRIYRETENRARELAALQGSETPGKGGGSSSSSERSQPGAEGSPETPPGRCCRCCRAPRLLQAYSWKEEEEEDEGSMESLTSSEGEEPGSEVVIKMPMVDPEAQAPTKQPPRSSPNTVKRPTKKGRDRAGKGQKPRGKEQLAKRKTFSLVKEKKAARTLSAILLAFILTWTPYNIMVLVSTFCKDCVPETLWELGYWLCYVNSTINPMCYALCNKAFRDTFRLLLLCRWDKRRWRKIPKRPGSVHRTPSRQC
The test can be described thus: Agonist activity at muscarinic M1 receptor. In kind it is functional.

Test [2] deals with T2, Muscarinic acetylcholine receptor M1 (Homo sapiens) (UniProt P11229).
T2 sequence (whole entry): T1 sequence (P11229 whole entry)
The test can be described thus: Agonist activity at muscarinic M1 receptor relative to carbachol. In kind it is functional.

Test [3] concerns the target T3, Muscarinic acetylcholine receptor M2 (Homo sapiens, UniProt P08172).
T3 sequence (P08172 whole entry): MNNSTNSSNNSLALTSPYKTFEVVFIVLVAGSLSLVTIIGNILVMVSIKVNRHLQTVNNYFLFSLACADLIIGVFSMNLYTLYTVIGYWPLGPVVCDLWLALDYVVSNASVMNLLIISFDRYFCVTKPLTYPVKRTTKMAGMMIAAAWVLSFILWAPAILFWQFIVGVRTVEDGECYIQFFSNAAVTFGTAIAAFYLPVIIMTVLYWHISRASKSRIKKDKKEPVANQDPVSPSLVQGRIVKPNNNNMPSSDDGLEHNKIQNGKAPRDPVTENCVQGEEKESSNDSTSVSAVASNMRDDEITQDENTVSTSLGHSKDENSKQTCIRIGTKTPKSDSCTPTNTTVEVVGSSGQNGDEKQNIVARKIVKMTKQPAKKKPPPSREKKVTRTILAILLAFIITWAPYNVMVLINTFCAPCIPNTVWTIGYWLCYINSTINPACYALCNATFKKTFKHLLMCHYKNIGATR
The test can be described thus: Agonist activity at muscarinic M2 receptor. Format: functional.

The target of test [4] is Muscarinic acetylcholine receptor M3 (Homo sapiens, UniProt P20309). The test can be described thus: Agonist activity at muscarinic M3 receptor. Format: functional.
Chain of Muscarinic acetylcholine receptor M3 (P20309 whole entry): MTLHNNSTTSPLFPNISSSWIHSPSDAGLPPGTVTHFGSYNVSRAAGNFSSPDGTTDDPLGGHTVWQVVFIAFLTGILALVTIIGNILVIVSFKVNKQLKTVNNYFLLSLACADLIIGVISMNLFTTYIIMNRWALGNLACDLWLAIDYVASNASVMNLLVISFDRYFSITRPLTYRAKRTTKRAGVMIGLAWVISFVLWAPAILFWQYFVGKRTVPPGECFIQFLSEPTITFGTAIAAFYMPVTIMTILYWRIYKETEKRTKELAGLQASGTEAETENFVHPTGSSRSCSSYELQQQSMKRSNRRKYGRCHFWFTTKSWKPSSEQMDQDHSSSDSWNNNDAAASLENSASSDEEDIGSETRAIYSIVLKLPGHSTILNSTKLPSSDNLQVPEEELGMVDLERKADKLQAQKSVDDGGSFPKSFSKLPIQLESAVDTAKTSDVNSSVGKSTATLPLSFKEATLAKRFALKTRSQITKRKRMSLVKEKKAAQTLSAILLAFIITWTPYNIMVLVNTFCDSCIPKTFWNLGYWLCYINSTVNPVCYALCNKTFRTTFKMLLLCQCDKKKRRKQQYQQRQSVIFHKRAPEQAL
For test [5], the target named is T4, Muscarinic acetylcholine receptor M4 (Homo sapiens, UniProt P08173).
T4 sequence (P08173 whole entry): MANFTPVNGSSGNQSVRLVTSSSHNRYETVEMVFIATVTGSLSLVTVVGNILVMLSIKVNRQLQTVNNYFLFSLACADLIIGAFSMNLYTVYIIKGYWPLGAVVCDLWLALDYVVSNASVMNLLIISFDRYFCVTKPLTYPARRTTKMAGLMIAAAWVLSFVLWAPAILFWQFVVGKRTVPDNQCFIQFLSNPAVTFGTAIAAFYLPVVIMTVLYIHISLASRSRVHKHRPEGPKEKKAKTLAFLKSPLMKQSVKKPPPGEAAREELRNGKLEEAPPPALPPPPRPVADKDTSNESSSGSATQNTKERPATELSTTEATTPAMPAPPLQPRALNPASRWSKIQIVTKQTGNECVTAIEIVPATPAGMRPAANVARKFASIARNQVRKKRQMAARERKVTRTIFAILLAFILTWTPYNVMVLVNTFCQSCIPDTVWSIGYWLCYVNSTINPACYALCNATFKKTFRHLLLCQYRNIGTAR
The test can be described thus: Agonist activity at muscarinic M4 receptor. In kind it is functional.

The target of test [6] is T5, Muscarinic acetylcholine receptor M5 (Homo sapiens, UniProt P08912).
T5 sequence (P08912 whole entry): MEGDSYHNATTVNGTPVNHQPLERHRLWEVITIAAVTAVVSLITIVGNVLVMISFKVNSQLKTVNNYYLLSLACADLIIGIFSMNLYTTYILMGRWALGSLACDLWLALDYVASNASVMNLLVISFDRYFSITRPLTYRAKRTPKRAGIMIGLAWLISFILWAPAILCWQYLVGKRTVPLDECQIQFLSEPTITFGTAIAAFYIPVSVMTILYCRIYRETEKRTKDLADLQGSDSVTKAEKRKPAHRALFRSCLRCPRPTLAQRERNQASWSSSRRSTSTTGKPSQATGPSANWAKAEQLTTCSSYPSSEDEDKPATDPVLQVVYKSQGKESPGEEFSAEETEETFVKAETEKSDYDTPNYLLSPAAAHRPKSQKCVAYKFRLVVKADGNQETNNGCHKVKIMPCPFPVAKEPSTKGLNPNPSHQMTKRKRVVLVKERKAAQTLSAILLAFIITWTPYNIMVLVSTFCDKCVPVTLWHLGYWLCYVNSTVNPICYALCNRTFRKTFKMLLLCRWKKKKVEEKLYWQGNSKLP
The test can be described thus: Agonist activity at muscarinic M5 receptor. In kind it is functional.

Test [7] deals with T6, D(2) dopamine receptor (Homo sapiens, UniProt P14416). The test can be described thus: Inhibition of dopamine D2 receptor.
T6 sequence (P14416 whole entry): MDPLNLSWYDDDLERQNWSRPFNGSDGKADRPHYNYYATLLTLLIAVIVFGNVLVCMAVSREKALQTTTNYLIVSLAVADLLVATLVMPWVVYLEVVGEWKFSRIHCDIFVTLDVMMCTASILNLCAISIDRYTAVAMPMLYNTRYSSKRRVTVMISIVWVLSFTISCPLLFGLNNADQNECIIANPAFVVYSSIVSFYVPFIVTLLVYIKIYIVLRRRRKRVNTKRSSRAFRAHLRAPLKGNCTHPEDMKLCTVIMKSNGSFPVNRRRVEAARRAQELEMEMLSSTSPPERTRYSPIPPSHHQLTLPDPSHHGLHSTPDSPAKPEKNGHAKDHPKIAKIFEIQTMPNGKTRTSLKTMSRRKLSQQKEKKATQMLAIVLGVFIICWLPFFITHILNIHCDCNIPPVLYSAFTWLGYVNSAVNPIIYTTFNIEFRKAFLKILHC
Test [8] has as its target T7, Muscarinic acetylcholine receptor M2 (Homo sapiens) (UniProt P08172).
T7 sequence (whole entry): T3 sequence (P08172 whole entry)
The test can be described thus: Agonist activity at muscarinic M2 receptor relative to carbachol. In kind it is functional.

For test [9], the target named is T8, Muscarinic acetylcholine receptor M4 (Homo sapiens) (UniProt P08173).
T8 sequence (whole entry): T4 sequence (P08173 whole entry)
The test can be described thus: Agonist activity at muscarinic M4 receptor relative to carbachol. Format: functional.

Test [10] concerns the target T9, Muscarinic acetylcholine receptor M5 (Homo sapiens) (UniProt P08912).
T9 sequence (whole entry): T5 sequence (P08912 whole entry)
The test can be described thus: Agonist activity at muscarinic M5 receptor relative to carbachol. In kind it is functional.

The target of test [11] is T6, D(2) dopamine receptor. The test can be described thus: Inhibition of dopamine D2 receptor at 10 uM. Details: scale not given: the % may be the effect or the level left.

Bounds are passed on as bounds.

With `O=c1[nH]c2cc(Cl)ccc2n1C1CCN(C2CCN(Cc3ccccc3Cl)CC2)CC1`, the EC50 in test [1] is 1.8 µM; in [3], more than 50 µM; in test [4], more than 50 µM; in test [5], more than 50 µM; in test [6] it was more than 50 µM. In test [2], this compound displayed an Activity of 49%.

In [2], `Cc1ccccc1CN1CCC(N2CCC(n3c(=O)[nH]c4c(F)cccc43)CC2)CC1` returned an Activity of 73%. The IC50 in [7] is more than 10 µM. For the same compound, the EC50 in test [3], in test [4], in test [5] and in [6] was more than 50 µM each time.

In the case of `O=c1[nH]c2ccccc2n1C1CCN(C2CCN(Cc3ccccc3Cl)CC2)CC1`, the EC50 was 0.26 µM in test [1]; more than 50 µM in test [3]; more than 50 µM in test [4]; more than 50 µM in [5]; more than 50 µM in [6]. Also, the Activity in test [2] worked out at 44%. Moreover, the IC50 in [7] amounted to 2.06 µM.

Take `O=c1[nH]c2ccc(F)cc2n1C1CCN(C2CCN(Cc3ccccc3C(F)(F)F)CC2)CC1`: the IC50 in test [7] was more than 10 µM. For the same compound, the EC50 in [3], in test [4], in [5] and in test [6] was more than 50 µM throughout.

In test [7], `CCOC(=O)N1CCC(N2CCC(n3c(=O)[nH]c4ccccc43)CC2)CC1` yielded an IC50 of more than 10 µM. Moreover, the EC50 in test [3] came to 0.0119 µM; in test [5] it was 0.0091 µM; in [6] it was 0.0343 µM. Also, the Activity in test [8] came out at 80.6%; in test [9] it was 96.9%; in test [10], 50.8%.

Regarding `O=c1[nH]c2cc(Cl)ccc2n1C1CCN(C2CCN(Cc3ccccc3[N+](=O)[O-])CC2)CC1`, the EC50 in test [1] was 1.1 µM; in test [3], more than 50 µM; in [4], more than 50 µM; in test [5], more than 50 µM; in [6] it was more than 50 µM. Further, the Activity in [2] was determined as 42%.

For the compound `O=c1[nH]c2c(F)cccc2n1C1CCN(C2CCN(Cc3ccccc3C(F)(F)F)CC2)CC1`, in test [2], the Activity is 75%. For the same compound, the IC50 in test [7] is more than 10 µM. Further, the half-maximal effective concentration (EC50) in test [3], in test [4], in test [5] and in [6] was more than 50 µM each time.

With `N#Cc1ccccc1CN1CCC(N2CCC(n3c(=O)[nH]c4cc(Cl)ccc43)CC2)CC1`, the half-maximal effective concentration (EC50) was 1.6 µM in test [1]; more than 50 µM in test [3]; more than 50 µM in test [4]; more than 50 µM in test [5]; more than 50 µM in [6]. The same compound gave an Activity in [2] of 27%.

For the compound `O=c1[nH]c2cc(Cl)ccc2n1C1CCN(C2CCN(Cc3ccccc3)CC2)CC1`, the EC50 in [1] was 0.356 µM; in test [3] it was more than 50 µM; in [4] it was more than 50 µM; in [5] it was more than 50 µM; in [6], more than 50 µM. Moreover, the figures for the Activity in test [2] and in test [11] were 74% and 35%, respectively.

For `O=c1[nH]c2ccccc2n1C1CCN(C2CCN(Cc3ccccc3[N+](=O)[O-])CC2)CC1`, the EC50 in test [1] was 0.12 µM; in [3] it was more than 50 µM; in test [4], more than 50 µM; in [5] it was more than 50 µM; in [6], more than 50 µM. The compound also had an Activity in [2] of 48%. The same compound came in with an IC50 in test [7] of 1.13 µM.

On to `O=c1[nH]c2ccccc2n1C1CCN(C2CCN(Cc3ccccc3C(F)(F)F)CC2)CC1`, for which the EC50 was 0.41 µM in test [1]; more than 50 µM in test [3]; more than 50 µM in test [4]; more than 50 µM in test [5]; more than 50 µM in [6]. The Activity in [11] was 30%.

Regarding `Cc1ccccc1CN1CCC(N2CCC(n3c(=O)[nH]c4cc(Cl)ccc43)CC2)CC1`, the EC50 in test [1] was 1.03 µM; in test [3], more than 50 µM; in test [4], more than 50 µM; in test [5] it was more than 50 µM; in test [6], more than 50 µM. Also, the Activity was 84% in test [2] and 35% in test [11].

The compound `Cc1ccccc1CN1CCC(N2CCC(n3c(=O)[nH]c4ccc(F)cc43)CC2)CC1` returned an Activity in [2] of 84%. Further, in [7], the IC50 was more than 10 µM. Besides, the EC50 in test [3], in test [4], in test [5] and in [6] was more than 50 µM each time.

As to `O=c1[nH]c2cc(F)ccc2n1C1CCN(C2CCN(Cc3ccccc3C(F)(F)F)CC2)CC1`, the Activity in test [2] was 80%. In [7], this compound showed an IC50 of 2.69 µM. For the same compound, the EC50 in [3], in test [4], in test [5] and in [6] was more than 50 µM in each case.

Consider `N#Cc1ccccc1CN1CCC(N2CCC(n3c(=O)[nH]c4ccccc43)CC2)CC1`, for which the EC50 in test [1] was 0.49 µM; in test [3], more than 50 µM; in test [4] it was more than 50 µM; in [5], more than 50 µM; in test [6], more than 50 µM. In addition, the values for the Activity in test [2] and in test [11] were 23% and 40%, respectively.

`Cc1ccccc1CN1CCC(N2CCC(n3c(=O)[nH]c4ccccc43)CC2)CC1` displayed an Activity in [2] of 82%. In addition, the IC50 in test [7] is 2.65 µM. Also, the EC50 in [3] and in test [6] was more than 50 µM each time.

`O=c1[nH]c2cc(Cl)ccc2n1C1CCN(C2CCN(Cc3ccccc3C(F)(F)F)CC2)CC1`: the concentration for a half-maximal effect (EC50) was 1.5 µM in test [1]; more than 50 µM in test [3]; more than 50 µM in [4]; more than 50 µM in test [5]; more than 50 µM in [6]. The same compound displayed an Activity in test [2] of 83%.

With `Cc1ccccc1CN1CCC(N2CCC(n3c(=O)[nH]c4cc(F)ccc43)CC2)CC1`, the Activity in test [2] worked out at 85%; in test [11] it was 40%. The EC50 in test [3], in test [4], in test [5] and in test [6] was more than 50 µM throughout.

(Values after ChEMBL document CHEMBL1142444 (Bioorg Med Chem Lett, 2008).)
